Experimental data from patent publication US20240180948A1, “4'-HALOGEN CONTAINING NUCLEOTIDE AND NUCLEOSIDE THERAPEUTIC COMPOSITIONS AND USES RELATED THERETO” (priority 2018, published 2024).

Tests used:
[1] = Liver microsome stability, rat; details: male, Sprague-Dawley, liver microsomes, pH 7.4
Plasma stability, mouse = details: male, CD-1, mouse
Plasma stability, human = details: both
Plasma stability, rat = details: male, Sprague-Dawley
[2] = Liver microsome stability, mouse; details: male, CD-1, mouse, liver microsomes, pH 7.4
[3] = Mouse plasma PK, single dose PO or IP; details: female, ICR (CD-1)
[4] = Liver microsome stability, human; details: both, liver microsomes, pH 7.4

SMILES | half-life at 1 μM [1] | half-life at 1 μM (Plasma stability, mouse) | half-life at 1 μM (Plasma stability, human) | half-life at 1 μM (Plasma stability, rat) | half-life at 1 μM [2] | AUC(0-inf) ([3]; ip, 10 mg/kg) | half-life ([3]; ip, 10 mg/kg) | AUC(0-inf) ([3]; po, 50 mg/kg) | bioavailability ([3]; po, 50 mg/kg) | half-life ([3]; po, 50 mg/kg) | AUC(0-inf) ([3]; po, 150 mg/kg) | bioavailability ([3]; po, 150 mg/kg) | half-life ([3]; po, 150 mg/kg) | AUC(0-inf) ([3]; po, 500 mg/kg) | bioavailability ([3]; po, 500 mg/kg) | half-life ([3]; po, 500 mg/kg) | half-life at 1 μM [4]
O=c1ccn([C@@H]2O[C@](F)(CO)[C@@H](O)[C@H]2O)c(=O)[nH]1 [EIDD-02749, 1-[(2R,3R,4S,5S)-5-fluoro-3,4-dihydroxy-5-(hydroxymethyl)tetrahydrofuran-2-yl]pyrimidine-2,4-dione] | 25 min | 37 min | 26 min | 22 min | 27 min | 19.6 µM·h | 378 min | 232 µM·h | 236% | 498 min | 392 µM·h | 133% | 510 min | 755 µM·h | 77% | 774 min | 22 min
CC(C)C(=O)OC[C@@]1(F)OC(n2ccc(=O)[nH]c2=O)C(O)[C@@H]1O (stereo partly drawn) [EIDD-2947, [(2S,3S)-5-(2,4-dioxopyrimidin-1-yl)-2-fluoro-3,4-dihydroxy-tetrahydrofuran-2-yl]methyl 2-methylpropanoate] | 10 min | 1 min | 2 min | 9 min | 1 min |  |  |  |  |  |  |  |  |  |  |  | 
CC(C)C(=O)OC[C@@]1(F)O[C@@H](n2ccc(=O)[nH]c2=O)[C@H](OC(=O)C(C)C)[C@@H]1OC(=O)C(C)C [EIDD-2954, [(2S,3S,4R,5R)-5-(2,4-dioxopyrimidin-1-yl)-2-fluoro-3,4-bis(2-methylpropanoyloxy)tetrahydrofuran-2-yl]methyl 2-methylpropanoate] | < 1 min | 1 min | 2 min | 1 min | < 1 min |  |  |  |  |  |  |  |  |  |  |  | < 1 min
CC(C)[C@H](N)C(=O)OC[C@@]1(F)O[C@@H](n2ccc(=O)[nH]c2=O)[C@H](O)[C@@H]1O.Cl [EIDD-2971, [(1S)-1-[[(2S,3S,4R,5R)-5-(2,4-dioxopyrimidin-1-yl)-2-fluoro-3,4-dihydroxy-tetrahydrofuran-2-yl]methoxycarbonyl]-2-methyl-propyl]ammonium chloride] | 33 min | 59 min | 81 min | 50 min | 11 min |  |  |  |  |  |  |  |  |  |  |  | 38 min
